According to patent US20240262807A1, “COMPOUND USED AS BCR-ABL INHIBITOR” (CHIA TAI TIANQING PHARMACEUTICAL GROUP CO., LTD., priority 2021, published 2024):

Assays:
[1] = Evaluation of pharmacokinetics in mice; assay type: in vivo; details: mouse, plasma, po, ICR mice; for bioavailability: ig 10 mg/kg, (intragastric AUC×intravenous dosage)/(intravenous AUC×intragastric dosage)×100%, read-out: Fabs(%) absolute bioavailability; for Cmax / Tmax / half-life / AUC(0-t) / MRT last: ig, 10 mg/kg; for AUC(0-t): read-out: AUC(0-24); for MRT last: read-out: MRT(0-24)
Procedure: ICR mice (purchased from Shanghai Sippe-Bk Lab Animal Co., Ltd.) of 18-22 g were randomized into groups of 9 after 3-5 days of acclimatization and administered with the compounds at a dose of 10 mg/kg by intragastric administration. The animals to be tested (ICR mice) were fasted overnight before administration and food was provided 4 h after administration, and water was freely drunk before and after the experiment and during the experiment. After intragastric administration, about 0.1 mL of blood was collected from the orbit at 0.25 (15 min), 0.5 (30 min), 1, 2, 3, 4, 6, 8, 10, and 24 h (Each mouse was subjected to blood collection at 3-4 time points, with three mice per time point). The blood samples were mixed with EDTA-K2 anticoagulant, transferred to a centrifuge within 30 min, and then centrifuged at 4000 rpm for 10 min at 4° C. to separate the plasma. All the plasma samples were collected and immediately stored at −20° C. for testing.
300 μL of acetonitrile solution containing an internal standard (20 ng/ml diazepam) was added to 30 μL of the plasma sample and standard curve sample. The mixture was shaken and mixed well for 5 min, and centrifuged at 13.000 rpm for 10 min. 70 μL of supernatant was taken and diluted with 70 μL of ultrapure water. After being mixed well, 1 μL of the resulting sample was subjected to LC/MS/MS, and a chromatogram was recorded.
Oral exposure of the compounds was evaluated by in vivo pharmacokinetic experiments in mice. The relevant pharmacokinetic parameters were fitted by using DAS3.2.5 software, where absolute bioavailability Fabs(%)=(intragastric AUC×intravenous dosage)/(intravenous AUC×intragastric dosage)×100%.

[2] = biological target: T1, Ba/F3-BCR-ABL1-T315I-C3 cells (Homo sapiens, UniProt P00519, T315I, cells depend on it); assay: Inhibitory effect of compounds on proliferation of BCR-ABL T315I-transfected Ba/F3 cells (CCK-8); assay type: cell-based; details: 72 h with compound, CCK-8, 5% serum, read-out: IC50 (nM) Ba/F3-BCR-ABL1 T315I
T1 construct: fused on or other part: P11274 (Breakpoint cluster region protein)
Procedure: Ba/F3-BCR-ABL1-T315I-C3 cells in logarithmic growth phase and good cell condition were added to a centrifuge tube and centrifuged at 1000 rpm for 5 min in a low speed centrifuge. The supernatant was discarded, and 5 mL of complete medium (RPMI 1640 basic medium+10% FBS) was added using a pipette for cell resuspension. The cells were counted using a cell counter, diluted with complete medium to a cell density of 6×10^4 cells/mL, and an equivalent amount of RPMI 1640 basic medium was added to adjust the serum concentration to 5% and the cell density to 3×10^4 cells/mL for plate seeding. The cells were seeded on a 96-well plate at 100 μL/well using a multi-channel pipette and cultured in a cell incubator at 37° C. 5% CO2 and saturated humidity. After 24 h incubation, compounds were loaded using a nanoliter pipettor, 8 concentrations (1000 nM, 250 nM, 63 nM, 16 nM, 3.9 nM, 0.98 nM, 0.24 nM, 0.061 nM) were set for each compound, and 2 replicate wells were set for each concentration; cells with no compounds added were taken as a negative control, and a plating medium with no cells added was taken as a blank control. After 72 h. […] Inhibition rate (%)=(mean value of negative control group−mean value of experimental group)/(mean value of negative control group−mean value of blank group)×100%. A dose-response curve was fitted by four-parameter analysis, with the logarithm of compound concentration serving as abscissa and inhibition rate serving as ordinate, such that ICso was calculated.

K562 cells = assay: Inhibitory effect of compounds on proliferation of K562 cells (CCK-8); assay type: cell-based; details: Homo sapiens, 72 h with compound, CCK-8, 5% serum
Procedure: K562 cells in logarithmic growth phase and good cell condition were added to a centrifuge tube and centrifuged at 1000 rpm for 5 min in a low speed centrifuge. […] The cells were seeded on a 96-well plate at 100 µL/well using a multi-channel pipette and cultured in a cell incubator at 37° ° C. 5% CO2 and saturated humidity. […] Inhibition rate (%)=(mean value of negative control group−mean value of experimental group)/(mean value of negative control group−mean value of blank group)×100%. A dose-response curve was fitted by four-parameter analysis, with the logarithm of compound concentration serving as abscissa and inhibition rate serving as ordinate, such that IC50 was calculated.

Structure (SMILES)	GI50 [2] [nM]	IC50 (K562 cells) [nM]	other results
Cn1ccc(-c2cc(C(=O)Nc3ccc(OC(F)(F)Cl)cc3)cnc2N2CCOCC2)cc1=O [Compound 7]	16	11	bioavailability [1]: 74.1%; Cmax [1]: 772 ng/mL; Tmax [1]: 3 h; half-life [1]: 63 min; AUC(0-t) [1]: 2850 ng·h/mL; MRT last [1]: 3.03 h
Cn1ccc(-c2cc(C(=O)Nc3ccc(OC(F)(F)Cl)cc3)cnc2N2CCCC2)cc1=O [Compound 15]	9.6	3.1	bioavailability [1]: 106%; Cmax [1]: 2330 ng/mL; Tmax [1]: 2 h; half-life [1]: 127 min; AUC(0-t) [1]: 12300 ng·h/mL; MRT last [1]: 3.64 h
Cn1ccc(-c2cc(C(=O)Nc3ccc(OC(F)(F)Cl)cc3)cnc2N2C3CCC2COC3)cc1=O [Compound 35]	13	16	
O=C(Nc1ccc(OC(F)(F)Cl)cc1)c1cnc(N2C3CCC2COC3)c(-c2cnn3c2COCC3)c1 [Compound 37]	16	7.8	
O=C(Nc1ccc(OC(F)(F)Cl)cc1)c1cnc(N2CC3CC(C2)O3)c(-c2cnn3c2COCC3)c1 [Compound 39]	2.4	5.9	
CO[C@@H]1CCN(c2ncc(C(=O)Nc3ccc(OC(F)(F)Cl)cc3)cc2-c2cnn3c2COCC3)C1 [Compound 41]	3.4	2.1	
O=C(Nc1ccc(OC(F)(F)Cl)cc1)c1cnc(N2CCCC2)c(-c2cnn3c2COCC3)c1 [Compound 42]	3.5	2.3	
O=C(Nc1ccc(OC(F)(F)Cl)cc1)c1cnc(N2CCOCC2)c(-c2cnn3c2COCC3)c1 [Compound 43]	4	2.2	
O=C(Nc1ccc(OC(F)(F)Cl)cc1)c1cnc(N2CC3CCC(C2)O3)c(-c2cnn3c2COCC3)c1 [Compound 44]	2.4	4.5	
Cn1cnc(-c2cc(C(=O)Nc3ccc(OC(F)(F)Cl)cc3)cnc2N2CCCC2)cc1=O [Compound 45]	8.1	4.2	
Cn1cnc(-c2cc(C(=O)Nc3ccc(OC(F)(F)Cl)cc3)cnc2N2CC[C@@H](O)C2)cc1=O [Compound 46]	26	26	
Cn1ncc(-c2cc(C(=O)Nc3ccc(OC(F)(F)Cl)cc3)cnc2N2CCCC2)cc1=O [Compound 47]	1.8	2.6	
Cn1cnc(-c2cc(C(=O)Nc3ccc(OC(F)(F)Cl)cc3)cnc2N2CC[C@@H](F)C2)cc1=O [Compound 53]	2.7	3	
Cn1cnc(-c2cc(C(=O)Nc3ccc(OC(F)(F)Cl)cc3)cnc2N2CCOCC2)cc1=O [Compound 54]	6.4	8.5	
C[C@@H]1COCCN1c1ncc(C(=O)Nc2ccc(OC(F)(F)Cl)cc2)cc1-c1cc(=O)n(C)cn1 [Compound 56]	12	18	
Cn1cncc(-c2cc(C(=O)Nc3ccc(OC(F)(F)Cl)cc3)cnc2N2CCOCC2)c1=O [Compound 60]	4	6.3	
CO[C@@H]1CCN(c2ncc(C(=O)Nc3ccc(OC(F)(F)Cl)cc3)cc2-c2cc(=O)n(C)cn2)C1 [Compound 63]	6	5.2	
Cn1cnc(-c2cc(C(=O)Nc3ccc(OC(F)(F)Cl)cc3)cnc2N2CCC(F)(F)CC2)cc1=O [Compound 64]	8.1	9.1	
Cn1cnc(-c2cc(C(=O)Nc3ccc(OC(F)(F)Cl)cc3)cnc2N2CCSCC2)cc1=O [Compound 67]	6.1	12	
Cn1cnc(-c2cc(C(=O)Nc3ccc(OC(F)(F)Cl)cc3)cnc2N2CC(F)(F)C2)cc1=O [Compound 72]	6.3	9.2	

Structure (SMILES)	GI50 [2] [nM]	IC50 (K562 cells) [nM]	other results
C[C@@H]1CCN1c1ncc(C(=O)Nc2ccc(OC(F)(F)Cl)cc2)cc1-c1cc(=O)n(C)cn1 [Compound 76]	2.2	2.2	
Cn1ncc(-c2cc(C(=O)Nc3ccc(OC(F)(F)Cl)cc3)cnc2N2CC3CC(C2)O3)cc1=O [Compound 83]	4.1	3.2	
Cn1cccc(-c2cc(C(=O)Nc3ccc(OC(F)(F)Cl)cc3)cnc2N2CCOCC2)c1=O [Compound 86]	14	24	
Cn1ncc(-c2cc(C(=O)Nc3ccc(OC(F)(F)Cl)cc3)cnc2N2CC3CCC(C2)O3)cc1=O [Compound 91]	4.1	6.6	
CN1CCc2cc(-c3cc(C(=O)Nc4ccc(OC(F)(F)Cl)cc4)cnc3N3CC[C@@H](O)C3)[nH]c2C1=O [Compound 94]	0.88	0.71	
O=C(Nc1ccc(OC(F)(F)Cl)cc1)c1cnc(N2CCOCC2)c(-c2cc3c([nH]2)C(=O)NC3)c1 [Compound 96]	0.59	4.7	
O=C(Nc1ccc(OC(F)(F)Cl)cc1)c1cnc(N2CCOCC2)c(-c2cc3c([nH]2)C(=O)NCC3)c1 [Compound 97]	2.3	5.7	
O=C(Nc1ccc(OC(F)(F)Cl)cc1)c1cnc(N2CC(O)C2)c(-c2cc3c([nH]2)C(=O)NCC3)c1 [Compound 98]	3.8	4.7	
O=C(Nc1ccc(OC(F)(F)Cl)cc1)c1cnc(N2CC[C@@H](O)C2)c(-c2cc3c([nH]2)C(=O)NCC3)c1 [Compound 99]	1.4	3.2	
CN(C)c1ncc(C(=O)Nc2ccc(OC(F)(F)Cl)cc2)cc1-c1cc2c([nH]1)C(=O)NC2 [Compound 109]	0.27	0.95	
CNc1ncc(C(=O)Nc2ccc(OC(F)(F)Cl)cc2)cc1-c1cc2c([nH]1)C(=O)NC2 [Compound 110]	0.44	3.1	
CN1Cc2cc(-c3cc(C(=O)Nc4ccc(OC(F)(F)Cl)cc4)cnc3N3CC[C@@H](O)C3)[nH]c2C1=O [Compound 111]	0.16	0.5	
CN1Cc2cc(-c3cc(C(=O)Nc4ccc(OC(F)(F)Cl)cc4)cnc3N3CC(O)C3)[nH]c2C1=O [Compound 112]	0.29	0.54	
O=C(Nc1ccc(OC(F)(F)Cl)cc1)c1cnc(N2CC[C@@H](O)C2)c(-c2cc3c([nH]2)C(=O)N(C2CC2)C3)c1 [Compound 113]	0.18	0.62	
O=C(Nc1ccc(OC(F)(F)Cl)cc1)c1cnc(N2CC(O)C2)c(-c2cc3c([nH]2)C(=O)N(C2CC2)C3)c1 [Compound 114]	0.21	0.56	
CN1CCc2cc(-c3cc(C(=O)Nc4ccc(OC(F)(F)Cl)cc4)cnc3N3CCOCC3)[nH]c2C1=O [Compound 115]	3	5.5	
O=C(Nc1ccc(OC(F)(F)Cl)cc1)c1ccc(N2CC[C@@H](O)C2)c(-c2cc3c([nH]2)C(=O)NC3)c1 [Compound 116]	0.12	0.82	
O=C(Nc1ccc(OC(F)(F)Cl)cc1)c1ccc(N2CC(O)C2)c(-c2cc3c([nH]2)C(=O)NC3)c1 [Compound 117]	0.15	1	
O=C(Nc1ccc(OC(F)(F)Cl)cc1)c1ccc(N2CC(O)C2)c(-c2cc3c([nH]2)C(=O)N(C2CC2)C3)c1 [Compound 120]	0.084	0.21	
